Assay [1] deals with T1, ERRα (Homo sapiens, UniProt P11474).
T1 sequence (P11474 1-423): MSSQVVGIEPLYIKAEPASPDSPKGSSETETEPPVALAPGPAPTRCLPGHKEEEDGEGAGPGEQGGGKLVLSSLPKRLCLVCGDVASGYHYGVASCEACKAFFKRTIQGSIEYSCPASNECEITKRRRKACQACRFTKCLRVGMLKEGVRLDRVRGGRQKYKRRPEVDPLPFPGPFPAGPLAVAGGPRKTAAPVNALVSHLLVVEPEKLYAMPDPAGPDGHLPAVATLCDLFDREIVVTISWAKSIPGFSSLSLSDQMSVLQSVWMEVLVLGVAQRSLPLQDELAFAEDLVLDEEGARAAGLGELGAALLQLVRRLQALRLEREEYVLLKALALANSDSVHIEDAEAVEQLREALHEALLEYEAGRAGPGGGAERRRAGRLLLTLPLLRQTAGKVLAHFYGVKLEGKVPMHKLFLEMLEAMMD
As to the kind of experiment: Competitive [3H] genistein binding whole cell assay in ERRα-positive SK-BR-3 cells. Also noted: endogenous in cells; host or cells: SK-BR-3. The note with it: FIG. 4. How it is done: In order to directly measure the binding affinities of agonists and inverse agonists to ERRα, we performed a competitive ERR binding whole cell assay using ERRα-positive SK-BR-3 cells. This method is developed based on the ER binding assay posted by the National Toxicology Program at the NIEHS <<http://iccvam.niehs.nih.gov/methods/endodocs/final/erbndbrd/erbdappx/B1.pdf>>. […] After the cells were washed twice with PBS, 250 μl ethanol will be added to each well for 20 min. Aliquots of ethanol extract was mixed with scintillation liquid for radioactivity measurements. The experiments have been performed in triplicate.
In addition to reporter activity assay, in order to evaluate the interaction of chalcones with ERRα, a competitive binding assay was performed.
Referring to FIG. 4, SK-BR-3 cells, which are positive for ERRα, were incubated with 1 μM of [3H] GEN and increasing concentrations of unlabeled GEN or Compound Nos. 1-9 or 7-5. After 1 h of incubation, the cells were washed with 1× PBS, and [3H] GEN was then extracted from the cells by an incubation of 30 min in 250 μl of ethanol. Values represent the mean±SD.

Assay [2] addresses T2, GAL4-human ERRα LBD fusion (Homo sapiens, UniProt P11474).
T2 construct: GAL4-human ERRα LBD fusion expression plasmid; expressed in transfected cells; host or cells: HeLa
T2 sequence (P11474 193-421 limits assumed): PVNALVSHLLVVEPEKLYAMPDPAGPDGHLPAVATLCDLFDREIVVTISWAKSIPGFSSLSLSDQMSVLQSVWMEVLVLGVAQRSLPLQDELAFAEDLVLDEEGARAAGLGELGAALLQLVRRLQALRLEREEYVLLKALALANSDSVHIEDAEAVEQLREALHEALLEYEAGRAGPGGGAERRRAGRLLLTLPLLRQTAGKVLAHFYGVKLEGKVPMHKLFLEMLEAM
As to the kind of experiment: Transient transfection luciferase assay, GAL4-human ERRα LBD fusion with Gal4-TK-Luc reporter in HeLa cells. The class given is cell-based. The note with it: pM-ERRα LBD, 24 h, mean ± SD. On the procedure: Referring to FIG. 2, we have also prepared GAL4-ERRα expression plasmid and luciferase reporter plasmids with GAL4 response element. This is a more sensitive assay method than that using pSG5-ERRα and ERE luciferase reporter plasmids.
To evaluate the functional significance of the interaction of chalcones with ERRα, we incubated these compounds with HeLa cells which were transiently transfected with human ERRα expression plasmid and a luciferase reporter plasmid containing SF1 binding site. […] In order to confirm the results above, HeLa cells were transiently transfected with GAL4-human ERRα LBD fusion expression plasmid and a luciferase reporter plasmid containing GAL4 binding site. […] Most of the compounds, however, have similar IC50 value, and have a similar potency.
Referring to FIG. 2, HeLa cells were cotransfected with pM-ERRα LBD (0.5 μg) and luciferase reporter plasmid containing GAL4 binding site and TK promoter (0.25 μg). The transfected cells were incubated with Compound No. 1-9 for 24 h. After cells were washed with 1× PBS, luciferase activity was measured. Values represent the mean±SD.

The target in assay [3] is T3, ERRβ (Homo sapiens, UniProt O95718).
T3 construct: expressed in transfected cells; host or cells: HeLa
T3 sequence (O95718 1-433): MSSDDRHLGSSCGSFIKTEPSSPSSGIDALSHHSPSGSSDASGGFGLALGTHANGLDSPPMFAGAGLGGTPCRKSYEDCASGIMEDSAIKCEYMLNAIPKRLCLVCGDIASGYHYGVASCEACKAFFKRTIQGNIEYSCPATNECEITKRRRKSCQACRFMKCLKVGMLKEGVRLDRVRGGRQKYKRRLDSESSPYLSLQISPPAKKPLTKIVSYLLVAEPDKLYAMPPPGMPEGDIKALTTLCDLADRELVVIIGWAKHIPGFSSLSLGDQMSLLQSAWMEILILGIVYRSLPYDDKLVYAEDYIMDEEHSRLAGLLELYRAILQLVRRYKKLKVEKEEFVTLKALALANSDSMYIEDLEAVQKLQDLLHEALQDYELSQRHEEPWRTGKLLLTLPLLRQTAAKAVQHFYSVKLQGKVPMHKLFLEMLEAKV
Nature of the assay: Transient transfection luciferase assay with pSG5-ERRb and SF1-SV40 reporter in HeLa cells. The class given is cell-based. The note with it: for IC50: HeLa cells, 24 h, average of at least two experiments; for Antagonistic properties on ERRb (in words): transient transfection.

In assay [4] the target is T4, ERβ (Homo sapiens, UniProt Q92731).
T4 construct: expressed in transfected cells; host or cells: HeLa
T4 sequence (Q92731 whole entry, species assumed): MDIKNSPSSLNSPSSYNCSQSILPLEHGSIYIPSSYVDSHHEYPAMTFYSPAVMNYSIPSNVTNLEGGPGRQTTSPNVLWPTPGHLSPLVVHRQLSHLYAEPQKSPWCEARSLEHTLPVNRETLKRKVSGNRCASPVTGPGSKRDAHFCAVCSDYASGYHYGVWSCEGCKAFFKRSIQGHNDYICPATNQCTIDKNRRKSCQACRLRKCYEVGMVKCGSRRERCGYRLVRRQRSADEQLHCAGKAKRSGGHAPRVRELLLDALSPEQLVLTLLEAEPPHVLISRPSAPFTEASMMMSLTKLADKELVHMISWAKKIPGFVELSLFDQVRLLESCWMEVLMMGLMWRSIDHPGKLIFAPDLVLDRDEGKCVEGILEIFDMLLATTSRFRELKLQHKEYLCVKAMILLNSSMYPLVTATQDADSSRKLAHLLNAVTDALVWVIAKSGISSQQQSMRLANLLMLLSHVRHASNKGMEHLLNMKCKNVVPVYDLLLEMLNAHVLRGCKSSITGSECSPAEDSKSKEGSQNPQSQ
As to the kind of experiment: Transient transfection luciferase assay with pCI-ERb and ERE-SV40 reporter in HeLa cells, with 100 pM estradiol. The note with it: for IC50: HeLa cells, in the presence of 100 pM of estradiol, 24 h; for Antagonistic properties on ERb (in words): transient transfection. The class given is cell-based.

Assay [5] deals with T5, ERRγ (Homo sapiens, UniProt P62508).
T5 construct: expressed in transfected cells; host or cells: HeLa
T5 sequence (P62508 1-458): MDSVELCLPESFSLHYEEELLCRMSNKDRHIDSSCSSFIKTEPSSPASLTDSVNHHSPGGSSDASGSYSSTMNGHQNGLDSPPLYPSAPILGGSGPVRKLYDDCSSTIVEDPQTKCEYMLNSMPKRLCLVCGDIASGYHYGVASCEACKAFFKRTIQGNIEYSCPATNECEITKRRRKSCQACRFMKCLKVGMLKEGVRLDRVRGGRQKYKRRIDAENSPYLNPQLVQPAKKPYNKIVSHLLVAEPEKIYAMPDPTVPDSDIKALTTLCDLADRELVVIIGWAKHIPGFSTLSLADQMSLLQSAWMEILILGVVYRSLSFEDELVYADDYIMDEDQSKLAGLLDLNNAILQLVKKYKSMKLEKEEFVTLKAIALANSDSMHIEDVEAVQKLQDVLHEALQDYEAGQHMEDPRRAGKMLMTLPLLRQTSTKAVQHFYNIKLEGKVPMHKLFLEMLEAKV
Nature of the assay: Transient transfection luciferase assay with pSG5-ERRg and SF1-SV40 reporter in HeLa cells. The note with it: for IC50: HeLa cells, 24 h, average of at least two experiments; for Antagonistic properties on ERRg (in words): transient transfection. The class given is cell-based.

SMILES strings stand for the structures.

Take `O=C(/C=C/c1ccccc1O)c1ccc(O)cc1O` [Compound No. 7-5, 2,2′,4′-Trihydroxychalcone]: the “Inhibition of binding of [3H] labeled genistein (in words)” value in assay [1] is “competitively inhibited the binding of [3H] labeled genistein in a dose-dependent manner”. In addition, in assay [2], the IC50 (usually the concentration at which inhibition is half-maximal) is 900000 ± 400000 pM. For the same compound, in assay [3], the midpoint of inhibition, the IC50, lay at 6.7 µM and the “Antagonistic properties on ERRb (in words)” value was “showed antagonistic properties”. In assay [4], the IC50 came out at 7.4 µM and the “Antagonistic properties on ERb (in words)” value is “showed antagonistic properties”. In assay [5], the IC50 was found to be 3.7 µM and the “Antagonistic properties on ERRg (in words)” value was “showed antagonistic properties”.

In the case of `COc1cccc(/C=C/C(=O)c2ccc(O)cc2O)c1OC` [Compound No. 1-9, 2′,4′-Dihydroxy-2,3-dimethoxychalcone], the “Inhibition of binding of [3H] labeled genistein (in words)” value in assay [1] was “competitively inhibited the binding of [3H] labeled genistein in a dose-dependent manner”. The IC50 in assay [2] amounted to 1.1e+06 ± 700000 pM; in assay [3] it was 3.5 µM; in assay [4] it was 4.6 µM; in assay [5], 8 µM. For the same compound, in assay [3], the “Antagonistic properties on ERRb (in words)” value is “showed antagonistic properties”. Further, in assay [4], the “Antagonistic properties on ERb (in words)” value is listed as “showed antagonistic properties”. Moreover, in assay [5], the “Antagonistic properties on ERRg (in words)” value is reported as “showed antagonistic properties”.

Source of the values: patent publication US9763961B2, “Compositions that modulate the activity of estrogen receptors and estrogen-related receptors and methods for use” (CITY OF HOPE, priority 2005, dated 2017).
